Source: PubChem BioAssay (NCI)
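Here, GI50 denotes the concentration required for 50% inhibition of growth. TGI marks complete inhibition of growth.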

How the values were obtained:
Assay in all cases: growth of human tumour cells (NCI), 384-well format
786-0 renal = test system: 786-0 renal
A498 renal = test system: A498 renal
A549 NSCLC = test system: A549 NSCLC
ACHN renal = test system: ACHN renal
BT-549 breast = test system: BT-549 breast
CAKI-1 renal = test system: CAKI-1 renal
COLO 205 colon = test system: COLO 205 colon
DU-145 prostate = test system: DU-145 prostate
EKVX NSCLC = test system: EKVX NSCLC
HCC-2998 colon = test system: HCC-2998 colon
HCT-116 colon = test system: HCT-116 colon
HCT-15 colon = test system: HCT-15 colon
HL-60(TB) leukemia = test system: HL-60(TB) leukemia
HOP-62 NSCLC = test system: HOP-62 NSCLC
HS 578T breast = test system: HS 578T breast
IGROV1 ovarian = test system: IGROV1 ovarian
KM12 colon = test system: KM12 colon
LOX IMVI melanoma = test system: LOX IMVI melanoma
M14 melanoma = test system: M14 melanoma
MALME-3M melanoma = test system: MALME-3M melanoma
MCF7 breast = test system: MCF7 breast
MDA-MB-231 breast = test system: MDA-MB-231 breast
MDA-MB-435 melanoma = test system: MDA-MB-435 melanoma
MDA-MB-468 breast = test system: MDA-MB-468 breast
MOLT-4 leukemia = test system: MOLT-4 leukemia
NCI-H226 lung = test system: NCI-H226 lung
NCI-H23 lung = test system: NCI-H23 lung
NCI-H322M lung = test system: NCI-H322M lung
NCI-H460 NSCLC = test system: NCI-H460 NSCLC
NCI-H522 lung = test system: NCI-H522 lung
NCI/ADR-RES ovarian = test system: NCI/ADR-RES ovarian
OVCAR-3 ovarian = test system: OVCAR-3 ovarian
OVCAR-4 ovarian = test system: OVCAR-4 ovarian
OVCAR-8 ovarian = test system: OVCAR-8 ovarian
PC-3 prostate = test system: PC-3 prostate
RPMI-8226 leukemia = test system: RPMI-8226 leukemia
RXF 393 renal = test system: RXF 393 renal
SF-268 CNS = test system: SF-268 CNS
SF-295 CNS = test system: SF-295 CNS
SK-MEL-28 melanoma = test system: SK-MEL-28 melanoma
SK-MEL-5 melanoma = test system: SK-MEL-5 melanoma
SK-OV-3 ovarian = test system: SK-OV-3 ovarian
SN12C renal = test system: SN12C renal
SNB-19 CNS = test system: SNB-19 CNS
SNB-75 CNS = test system: SNB-75 CNS
SR leukemia = test system: SR leukemia
SW-620 colon = test system: SW-620 colon
T-47D breast = test system: T-47D breast
TK-10 renal = test system: TK-10 renal
U251 glioblastoma = test system: U251 glioblastoma
UACC-257 melanoma = test system: UACC-257 melanoma
UACC-62 melanoma = test system: UACC-62 melanoma
UO-31 renal = test system: UO-31 renal

Question: Which GI50 (786-0 renal) does the source give for `Cc1ccc(Nc2nccc(N(C)c3ccc4c(C)n(C)nc4c3)n2)cc1S(N)(=O)=O` here?
Answer: 4.16 µM

Question: And the TGI (786-0 renal)?
Answer: > 100 µM

Question: And the GI50 (A498 renal)?
Answer: 6.05 µM

Question: What about the TGI (A498 renal) of the same molecule?
Answer: 90.9 µM

Question: What about the GI50 (A549 NSCLC) of the same molecule?
Answer: 4.55 µM

Question: And the TGI (A549 NSCLC)?
Answer: > 100 µM

Question: And the GI50 (ACHN renal)?
Answer: 6.18 µM

Question: What about the TGI (ACHN renal) of the same molecule?
Answer: > 100 µM

Question: And the GI50 (BT-549 breast)?
Answer: 1.61 µM

Question: And the TGI (BT-549 breast)?
Answer: 16.6 µM

Question: What about the GI50 (CAKI-1 renal) of the same molecule?
Answer: 3.78 µM

Question: And the TGI (CAKI-1 renal)?
Answer: > 100 µM

Question: And the GI50 (COLO 205 colon)?
Answer: 14 µM

Question: What about the TGI (COLO 205 colon) of the same molecule?
Answer: > 100 µM

Question: And the GI50 (DU-145 prostate)?
Answer: 9.34 µM

Question: And the TGI (DU-145 prostate)?
Answer: > 100 µM

Question: What about the GI50 (EKVX NSCLC) of the same molecule?
Answer: 14.3 µM

Question: What about the TGI (EKVX NSCLC) of the same molecule?
Answer: > 100 µM

Question: What about the GI50 (HCC-2998 colon) of the same molecule?
Answer: > 100 µM

Question: What about the TGI (HCC-2998 colon) of the same molecule?
Answer: > 100 µM

Question: And the GI50 (HCT-116 colon)?
Answer: 5.38 µM

Question: And the TGI (HCT-116 colon)?
Answer: > 100 µM

Question: What about the GI50 (HCT-15 colon) of the same molecule?
Answer: 4.4 µM

Question: And the TGI (HCT-15 colon)?
Answer: 37.8 µM

Question: What about the GI50 (HL-60(TB) leukemia) of the same molecule?
Answer: 7.4 µM

Question: What about the TGI (HL-60(TB) leukemia) of the same molecule?
Answer: 18.3 µM

Question: And the GI50 (HOP-62 NSCLC)?
Answer: 6.28 µM

Question: And the TGI (HOP-62 NSCLC)?
Answer: 34.5 µM

Question: What about the GI50 (HS 578T breast) of the same molecule?
Answer: 2.3 µM

Question: And the TGI (HS 578T breast)?
Answer: 7.68 µM

Question: And the GI50 (IGROV1 ovarian)?
Answer: 5.68 µM

Question: And the TGI (IGROV1 ovarian)?
Answer: > 100 µM

Question: And the GI50 (KM12 colon)?
Answer: 7 µM

Question: What about the TGI (KM12 colon) of the same molecule?
Answer: > 100 µM

Question: And the GI50 (LOX IMVI melanoma)?
Answer: 3.62 µM

Question: What about the TGI (LOX IMVI melanoma) of the same molecule?
Answer: 40.4 µM

Question: What about the GI50 (M14 melanoma) of the same molecule?
Answer: 8.19 µM

Question: What about the TGI (M14 melanoma) of the same molecule?
Answer: 52.9 µM

Question: And the GI50 (MALME-3M melanoma)?
Answer: 2.73 µM

Question: And the TGI (MALME-3M melanoma)?
Answer: > 100 µM

Question: What about the GI50 (MCF7 breast) of the same molecule?
Answer: 7.41 µM

Question: And the TGI (MCF7 breast)?
Answer: > 100 µM

Question: And the GI50 (MDA-MB-231 breast)?
Answer: 5.54 µM

Question: What about the TGI (MDA-MB-231 breast) of the same molecule?
Answer: > 100 µM

Question: And the GI50 (MDA-MB-435 melanoma)?
Answer: 78.6 µM

Question: What about the TGI (MDA-MB-435 melanoma) of the same molecule?
Answer: > 100 µM

Question: And the GI50 (MDA-MB-468 breast)?
Answer: 2.97 µM

Question: And the TGI (MDA-MB-468 breast)?
Answer: 62.9 µM

Question: What about the GI50 (MOLT-4 leukemia) of the same molecule?
Answer: 2.36 µM

Question: And the TGI (MOLT-4 leukemia)?
Answer: 6.45 µM

Question: And the GI50 (NCI-H226 lung)?
Answer: 1.99 µM

Question: And the TGI (NCI-H226 lung)?
Answer: 13.3 µM

Question: What about the GI50 (NCI-H23 lung) of the same molecule?
Answer: 4.79 µM

Question: What about the TGI (NCI-H23 lung) of the same molecule?
Answer: 69.6 µM

Question: And the GI50 (NCI-H322M lung)?
Answer: 7.64 µM

Question: What about the TGI (NCI-H322M lung) of the same molecule?
Answer: 45.5 µM

Question: What about the GI50 (NCI-H460 NSCLC) of the same molecule?
Answer: 5.27 µM

Question: And the TGI (NCI-H460 NSCLC)?
Answer: > 100 µM

Question: What about the GI50 (NCI-H522 lung) of the same molecule?
Answer: 6.73 µM

Question: And the TGI (NCI-H522 lung)?
Answer: 99.3 µM

Question: And the GI50 (NCI/ADR-RES ovarian)?
Answer: 30.5 µM

Question: And the TGI (NCI/ADR-RES ovarian)?
Answer: 93.6 µM

Question: And the GI50 (OVCAR-3 ovarian)?
Answer: 22.6 µM

Question: What about the TGI (OVCAR-3 ovarian) of the same molecule?
Answer: > 100 µM

Question: What about the GI50 (OVCAR-4 ovarian) of the same molecule?
Answer: 9.52 µM

Question: And the TGI (OVCAR-4 ovarian)?
Answer: 35.6 µM

Question: What about the GI50 (OVCAR-8 ovarian) of the same molecule?
Answer: 8.01 µM

Question: What about the TGI (OVCAR-8 ovarian) of the same molecule?
Answer: 61.3 µM

Question: What about the GI50 (PC-3 prostate) of the same molecule?
Answer: 11.2 µM

Question: What about the TGI (PC-3 prostate) of the same molecule?
Answer: 70.9 µM

Question: And the GI50 (RPMI-8226 leukemia)?
Answer: 3.57 µM

Question: And the TGI (RPMI-8226 leukemia)?
Answer: 11.5 µM

Question: And the GI50 (RXF 393 renal)?
Answer: 0.485 µM

Question: And the TGI (RXF 393 renal)?
Answer: 3.04 µM

Question: What about the GI50 (SF-268 CNS) of the same molecule?
Answer: 12.6 µM

Question: What about the TGI (SF-268 CNS) of the same molecule?
Answer: > 100 µM

Question: What about the GI50 (SF-295 CNS) of the same molecule?
Answer: 8.89 µM

Question: And the TGI (SF-295 CNS)?
Answer: > 100 µM

Question: And the GI50 (SK-MEL-28 melanoma)?
Answer: 55.2 µM

Question: And the TGI (SK-MEL-28 melanoma)?
Answer: > 100 µM

Question: And the GI50 (SK-MEL-5 melanoma)?
Answer: 3.03 µM

Question: What about the TGI (SK-MEL-5 melanoma) of the same molecule?
Answer: 10.7 µM

Question: What about the GI50 (SK-OV-3 ovarian) of the same molecule?
Answer: 6.47 µM

Question: And the TGI (SK-OV-3 ovarian)?
Answer: > 100 µM

Question: And the GI50 (SN12C renal)?
Answer: 7.86 µM

Question: What about the TGI (SN12C renal) of the same molecule?
Answer: > 100 µM

Question: And the GI50 (SNB-19 CNS)?
Answer: > 100 µM

Question: And the TGI (SNB-19 CNS)?
Answer: > 100 µM

Question: What about the GI50 (SNB-75 CNS) of the same molecule?
Answer: 2.51 µM

Question: And the TGI (SNB-75 CNS)?
Answer: 29 µM

Question: What about the GI50 (SR leukemia) of the same molecule?
Answer: 6.38 µM

Question: What about the TGI (SR leukemia) of the same molecule?
Answer: 12.1 µM

Question: What about the GI50 (SW-620 colon) of the same molecule?
Answer: > 100 µM

Question: What about the TGI (SW-620 colon) of the same molecule?
Answer: > 100 µM

Question: And the GI50 (T-47D breast)?
Answer: 2.52 µM

Question: And the TGI (T-47D breast)?
Answer: 11.4 µM

Question: And the GI50 (TK-10 renal)?
Answer: 31.6 µM

Question: And the TGI (TK-10 renal)?
Answer: > 100 µM

Question: And the GI50 (U251 glioblastoma)?
Answer: 9.87 µM

Question: And the TGI (U251 glioblastoma)?
Answer: > 100 µM

Question: And the GI50 (UACC-257 melanoma)?
Answer: 12 µM

Question: What about the TGI (UACC-257 melanoma) of the same molecule?
Answer: 62.2 µM

Question: What about the GI50 (UACC-62 melanoma) of the same molecule?
Answer: 6.37 µM

Question: What about the TGI (UACC-62 melanoma) of the same molecule?
Answer: 20.8 µM

Question: And the GI50 (UO-31 renal)?
Answer: 8.29 µM

Question: And the TGI (UO-31 renal)?
Answer: > 100 µM
